From article PMC2360155, “Novel retinoic acid metabolism blocking agents have potent inhibitory activities on human breast cancer cells and tumour growth” (British Journal of Cancer, 2007)

Tests used:
MCF-7 tumour xenografts = test: In vivo antitumour study, established MCF-7 tumour xenografts; details: for Antitumour effect relative to ATRA / 4-HPR (33.0 μmol kg^−1 day^−1), in words: VN/14-1 16.5 μmol kg^−1 day^−1, VN/66-1 66.0 μmol kg^−1 day^−1; for Reduction in mean tumour volume compared with vehicle control / Reduction in mean tumour volume compared with the ATRA group (10 mg kg^−1 day^−1): 6 weeks
Method: All the animal studies were performed according to the guidelines and approval of the Animal Care Committee of the University of Maryland, School of Medicine. Ovariectomised female athymic nude 4–6-week-old mice were used. […] Ovariectomised mice were then inoculated with MCF-7 cells (2 × 10^6 cells in Matrigel per tumour growth site) subcutaneously (s.c.) on the right and left flank. Tumour volumes were measured weekly with calipers. […] Retinoic acid metabolism blocking agents were formulated in 0.3% HPC (hydroxy propyl cellulose). […] Compounds were injected continuously for three days with a drug holiday of one day after every 3 days of treatment. Twice per week, the mice were weighed and tumours were measured using a caliper. Tumour volume was calculated according to the formula 4/3πr1^2r2 (r1<r2). The tumour treatment study was continued for 6 weeks. At the end of 6 weeks, mice were killed and blood plasma, as well as tumours, were collected, weighed and stored at −80°C until analysis.
Female ovariectomised nude mice bearing established MCF-7 tumour xenografts (200–300 mm^3) were grouped so that the mean tumour volume was similar for each group. […] Tumour sizes were measured twice a week after the start of treatment.
Ovariectomised female athymic nude 4–6-week-old mice were used. Oestrogen pellets (1.7 mg per pellet, 90 day release obtained from Innovative Research of America) were implanted in the mice using a trochar to facilitate tumour growth. Mice were then inoculated with MCF-7 cells (2 × 10^6 cells in Matrigel per tumour growth site) s.c. on the right and left flank. Tumours were allowed to grow for about 4–5 weeks till they were of measurable size (200–300 mm^3). The mice were then grouped as control and treatment groups. Twice every week the mice were weighed and tumours were measured using a caliper. Tumour volume was calculated according to the formula 4/3πr1^2r2 (r1<r2). The tumour treatment study was continued for 6 weeks. […] Mice were weighed twice every week during the 6-week antitumour study.

caspase-9 = test: Western immunoblotting for caspase-9 in T47D cells; format: cell-based, human; details: 6 days
Method: (§1) At the end of the treatment, cells were scrapped and collected by washing with ice-cold PBS in a centrifuge tube. Cells were centrifuged at 2500 r.p.m. for 10 min, the pellet was again washed with ice-cold PBS and centrifuged. The cell pellet was then suspended in chilled cell lysis buffer (0.1 M Tris–HCl, 0.5% Triton X-100, protease inhibitor cocktail) and sonicated on ice for 10–15 s. The homogenate was kept on ice for 30 min and then centrifuged at 13 000 r.p.m. for 30 min. The supernatant was used as cell lysate. The cell lysates were stored at −80°C. Protein concentration of the cell lysates was determined using Bio-Rad protein assay reagents.
Protein lysates from MCF-7 and T47D cells were subjected to sodium dodecyl sulphate–polyacrylamide gel electrophoresis (SDS–PAGE) and immunoblotted for different proteins. Equal amounts of protein (25–50 μg) were subjected to SDS–PAGE at 60 V for 3 h using the mini PROTEAN3 electrophoresis module assembly (Bio-Rad, Hercules, CA, USA), and transferred to nitrocellulose membranes (Hybond ECL, Amersham). Immunodetections were carried out using antibodies against CK 8/18 (1° antibody – 1 : 8000 in 10% milk PBST), E-cadherin (1° antibody – 1 : 1000 in 5% milk in TBST) and ER-α (1° antibody – 1 : 200 in 5% milk PBST) purchased from Santa Cruz Biotechnology Inc. Antibodies against PARP (1° antibody – 1 : 1000 in 5% milk TBST), cyclin- D1 (1° antibody – 1 : 2000 in 10% milk TBST), caspase-9 (1° antibody – 1 : 1000 in 10% milk TBST) and BAD (1° antibody – 1 : 1000 in 5% BSA TBST) were obtained from Cell Signaling Technology. Antibody for β-actin was obtained from Calbiochem (CA, USA). Secondary anti-mouse IgG HRP conjugate antibody was purchased from Calbiochem and Bio-Rad. Secondary anti-rabbit IgG HRP conjugate antibody was bought from Bio-Rad as well as from Kirkegaard and Perry laboratories (Gaithersburg, MD, USA). Immunoreactive bands were visualised using the enhanced chemiluminescence detection reagents and analysis system (Amersham Bioscences) according to the manufacturer's instructions and quantified by densitometry using ImageQuant software version 5.
Figure 7 (A) Western immunoblotting of whole-cell lysates of treated MCF-7 and T47D cells for the expression of Bad. […] Numbers below the blot show fold increase in expression of the protein as analysed by ImageQuant densitometry analysis. Membranes were stripped and probed for β-actin to verify equal protein loading. Primary antibody (Cell Signaling Technology) 1 : 1000 in 5% BSA TBST overnight at 4°C and secondary antibody (anti-rabbit) 1 : 2000 for 1 h at RT. This experiment was repeated twice with similar results. […] Numbers below the blot show fold increase in the active form of caspase-9 as compared with control. Membrane was stripped and probed for β-actin to verify equal amount of protein loading. The primary and secondary antibodies and their dilutions are as follows: primary antibody (Cell Signaling Technology), 1 : 1000 in 10% milk TBST overnight at 4°C and secondary antibody (anti-rabbit) 1 : 2000 in 10% milk TBST for 1 h at RT. Densitometry analysis was performed by ImageQuant software. This experiment was repeated twice with similar results. (C) Western immunoblotting of whole-cell lysates of treated MCF-7 and T47D cells for the expression of full-length and cleaved PARP. […] T47D cells were treated with RAMBAs (VN/50-1 and VN/14-1) for 6 days and then cell lysates were electrophoresed using 10% SDS–PAGE and subjected to Western blotting. Lane 1: control; lanes 2–4: VN/50-1 (1, 5 and 10 μM); lanes 5–7: VN/14-1 (1, 5 and 10 μM). Numbers below the blot show fold increase in expression of the protein as analysed by ImageQuant densitometry analysis. Membranes were stripped and probed for β-actin to verify equal protein loading. Primary antibody (Cell Signaling Technology) 1 : 1000 in 5% milk TBST overnight at 4°C and secondary antibody (anti-rabbit) 1 : 2000 for 1 h at RT. […]

cyclin D1 = test: Western blotting for cyclin D1 in T47D cells; format: cell-based, human; details: 1, 5 and 10 μM, 6 days
Method: as §1
Protein lysates from MCF-7 and T47D cells were subjected to sodium dodecyl sulphate–polyacrylamide gel electrophoresis (SDS–PAGE) and immunoblotted for different proteins. […] Immunoreactive bands were visualised using the enhanced chemiluminescence detection reagents and analysis system (Amersham Bioscences) according to the manufacturer's instructions and quantified by densitometry using ImageQuant software version 5.
Figure 5 Western blotting of whole-cell lysates of treated MCF-7 and T47D cells for the expression of Cyclin D1. […] Numbers below the blot show fold decrease in expression of the protein as analysed by ImageQuant densitometry analysis. […]

Compound: CC1=C(/C=C/C(C)=C/C=C/C(C)=C/C(=O)Nc2ccc(O)cc2)C(C)(C)CCC1n1ccnc1 (stereo not drawn) [VN/66-1]
- Antitumour effect relative to ATRA / 4-HPR (33.0 μmol kg^−1 day^−1), in words (MCF-7 tumour xenografts): not better than ATRA

Compound: CC1=C(/C=C/C(C)=C/C=C/C(C)=C/C(=O)O)C(C)(C)CCC1 [ATRA, all-trans-retinoic acid, reference compound]
- Expression of procaspase-9 (47 kDa), control = 1 (caspase-9; 5 μM): 0.4 fold
- Increase of active form of caspase-9 (37 kDa) compared with untreated control (caspase-9; 5 μM): 1.7 fold
- Expression of procaspase-9 (47 kDa), control = 1 (caspase-9; 10 μM): 0.3 fold
- Increase of active form of caspase-9 (37 kDa) compared with untreated control (caspase-9; 10 μM): 1.8 fold

Compound: CC1=C(/C=C/C(C)=C/C=C/C(C)=C/C(=O)O)C(C)(C)CCC1n1ccnc1 (stereo not drawn) [VN/14-1]
- Reduction in mean tumour volume compared with vehicle control (MCF-7 tumour xenografts; 16.5 μmol kg^−1 day^−1 s.c.): 66.5%
- Reduction in mean tumour volume compared with the ATRA group (10 mg kg^−1 day^−1) (MCF-7 tumour xenografts; 33.0 μmol kg^−1 day^−1 s.c.): 45%
- Reduction in mean tumour volume compared with vehicle control (MCF-7 tumour xenografts; 33.0 μmol kg^−1 day^−1 s.c.): 79.4%
- Reduction in mean final tumour weight compared with mice receiving vehicle alone (MCF-7 tumour xenografts; 66.0 μmol kg^−1 day^−1): 92.6%
- Reduction in mean tumour volume compared with the ATRA group (10 mg kg^−1 day^−1) (MCF-7 tumour xenografts; 66.0 μmol kg^−1 day^−1 s.c.): 75.61%
- Reduction in mean tumour volume compared with vehicle control (MCF-7 tumour xenografts; 66.0 μmol kg^−1 day^−1 s.c.): 92.6%
- Antitumour effect relative to ATRA / 4-HPR (33.0 μmol kg^−1 day^−1), in words (MCF-7 tumour xenografts): comparable with the antitumour effect of ATRA or 4-HPR
- Tumour regression in the antitumour efficacy studies (MCF-7 tumour xenografts; mouse, in vivo): did not cause any tumour regressions
- Expression of procaspase-9 (47 kDa), control = 1 (caspase-9; 5 μM): 0.4 fold
- Increase of active form of caspase-9 (37 kDa) compared with untreated control (caspase-9; 5 μM): 1.7 fold
- Expression of procaspase-9 (47 kDa), control = 1 (caspase-9; 10 μM): 0.7 fold
- Increase of active form of caspase-9 (37 kDa) compared with untreated control (caspase-9; 10 μM): 1.7 fold
- Expression of cyclin D1 (in words) (cyclin D1): significantly downregulated
